What all share (test): biochemical
Type in all cases: binding

The target of assay [1] is T1, HLA-DP4 molecule DPA1*0103/DPB1*0401 (DP401) (Homo sapiens, UniProt P04440+P20036).
T1 construct: purified from various human B lymphocyte lines transformed with the Epstein Barr virus (EBV), which are homozygotes for DP; endogenous in cells
T1 sequence (P20036 29-260): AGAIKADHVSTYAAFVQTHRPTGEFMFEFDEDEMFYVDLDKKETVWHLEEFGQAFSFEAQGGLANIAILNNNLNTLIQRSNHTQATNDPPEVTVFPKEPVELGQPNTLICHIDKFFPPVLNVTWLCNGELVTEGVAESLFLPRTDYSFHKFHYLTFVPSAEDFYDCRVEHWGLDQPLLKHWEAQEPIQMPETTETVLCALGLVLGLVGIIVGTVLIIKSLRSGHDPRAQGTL
T1 sequence (P04440 30-258): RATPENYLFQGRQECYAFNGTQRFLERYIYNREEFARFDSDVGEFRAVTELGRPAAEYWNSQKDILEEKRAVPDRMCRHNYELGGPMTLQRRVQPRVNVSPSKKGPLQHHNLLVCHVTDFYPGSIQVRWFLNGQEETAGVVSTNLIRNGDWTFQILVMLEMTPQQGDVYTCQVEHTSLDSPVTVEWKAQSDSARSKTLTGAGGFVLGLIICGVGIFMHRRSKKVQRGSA

For assay [2], the target named is T2, HLA-DP4 molecule DPA1*0103/DPB1*0402 (DP402) (Homo sapiens, UniProt P04440+P20036, A65V/A84D/A85E/L207M).
T2 construct: purified from various human B lymphocyte lines transformed with the Epstein Barr virus (EBV), which are homozygotes for DP; endogenous in cells
T2 sequence (P20036 29-260): T1 sequence (P20036 29-260)
T2 sequence (P04440 30-258 A65V/A84D/A85E): T1 sequence (P04440 30-258) with A36V, A55D, A56E

The target in assay [3] is T3, HLA-DP4 molecule DPA1*0103/DPB1*0402 (DP402) (Homo sapiens, UniProt P04440+P20036).
T3 construct: purified from various human B lymphocyte lines transformed with the Epstein Barr virus (EBV), which are homozygotes for DP; endogenous in cells
T3 sequence (P20036 29-260): T1 sequence (P20036 29-260)
T3 sequence (P04440 30-258 A65V/A84D/A85E): T1 sequence (P04440 30-258) with A36V, A55D, A56E

[4] abbreviates: IC50 (nM) 401, Table XIII, binding to DPB1*0401, competition binding assay.
The mark [5] stands for this setting: IC50 (nM) DP0401, Api m1 overlapping peptides, tracer bUNK 1-17 10 nM, pH 5, 24 h.
Setting [6] is: IC50 (nM) 402, Table XIII, binding to DPB1*0402, competition binding assay.
Where [7] appears, read: IC50 (nM) DP0402, Api m1 overlapping peptides, tracer bUNK 1-17 10 nM, pH 5, 24 h.
Setting [8] is: DP*0401 IC50 (nM), Table XV, HLA-DP4-binding activity.
The mark [9] stands for this setting: DP*0402 IC50 (nM), Table XV, HLA-DP4-binding activity.

Substitutions are numbered along the chain they refer to. Where two headings read alike, the source gives them in different places. Where a SMILES comes first, the peptide text is derived from it. Bounds are passed on as bounds.

As for `CC[C@H](C)[C@H](NC(=O)[C@@H](N)Cc1c[nH]c2ccccc12)C(=O)N[C@H](C(=O)N[C@@H](CCC(N)=O)C(=O)N[C@@H](CS)C(=O)N[C@@H](Cc1ccccc1)C(=O)N[C@@H](CC(C)C)C(=O)N1CCC[C@H]1C(=O)N[C@H](C(=O)O)C(C)C)[C@@H](C)O` (H-WITQCFLPV-OH; N-terminus and C-terminus assumed), the IC50 (usually the midpoint of a concentration-inhibition curve) in assay [1] (calculated activity (using the DP*0401-binding assay)) is 20 nM; in assay [2] (calculated activity (using the DP*0402-binding assay)) it was 67 nM.

`CC[C@H](C)[C@H](NC(=O)[C@@H](NC(=O)[C@H](CC(=O)O)NC(=O)[C@H](C)NC(=O)[C@H](CO)NC(=O)[C@H](CC(N)=O)NC(=O)[C@H](CCCCN)NC(=O)[C@H](CC(C)C)NC(=O)[C@H](CS)NC(=O)[C@@H](N)CC(=O)O)[C@@H](C)O)C(=O)N[C@@H](CO)C(=O)N[C@@H](CO)C(=O)N[C@@H](Cc1ccc(O)cc1)C(=O)N[C@@H](Cc1ccccc1)C(=O)N[C@H](C(=O)NCC(=O)N[C@@H](CCCCN)C(=O)N[C@@H](CCSC)C(=O)O)C(C)C` [69-86]: the IC50 in assay [1] (setting [4]), in assay [1] (setting [5]), in assay [2] (setting [6]) and in assay [2] (setting [7]) was above 10000 nM each time.

Turning to `CC[C@H](C)[C@H](NC(=O)[C@@H](NC(=O)[C@H](CC(=O)O)NC(=O)[C@H](C)NC(=O)[C@H](CO)NC(=O)[C@@H](N)CC(N)=O)[C@@H](C)O)C(=O)N[C@@H](CO)C(=O)N[C@@H](CO)C(=O)N[C@@H](Cc1ccc(O)cc1)C(=O)N[C@@H](Cc1ccccc1)C(=O)N[C@H](C(=O)NCC(=O)N[C@@H](CCCCN)C(=O)N[C@@H](CCSC)C(=O)N[C@@H](Cc1ccc(O)cc1)C(=O)N[C@@H](Cc1ccccc1)C(=O)N[C@@H](CC(N)=O)C(=O)N[C@@H](CC(C)C)C(=O)O)C(C)C` [73-90], the IC50 in assay [1] (setting [4]), in assay [1] (setting [5]), in assay [2] (setting [6]) and in assay [2] (setting [7]) was above 10000 nM in each case.

`CC[C@H](C)[C@H](NC(=O)[C@H](CC(C)C)NC(=O)[C@H](CC(N)=O)NC(=O)[C@H](Cc1ccccc1)NC(=O)[C@H](Cc1ccc(O)cc1)NC(=O)[C@H](CCSC)NC(=O)[C@H](CCCCN)NC(=O)CNC(=O)[C@@H](NC(=O)[C@H](Cc1ccccc1)NC(=O)[C@H](Cc1ccc(O)cc1)NC(=O)[C@H](CO)NC(=O)[C@H](CO)NC(=O)[C@@H](NC(=O)[C@@H](N)[C@@H](C)O)[C@@H](C)CC)C(C)C)C(=O)N[C@@H](CC(=O)O)C(=O)N[C@H](C(=O)N[C@@H](CCCCN)C(=O)O)[C@@H](C)O` [77-94] (H-TISSYFVGKMYFNLIDTK-OH; N-terminus and C-terminus assumed): the IC50 came out at 450 nM in assay [1] (setting [4]), 450 nM in assay [1] (setting [5]), 175 nM in assay [2] (setting [6]) and 175 nM in assay [2] (setting [7]).

For the molecule `CC(C)C[C@H](NC(=O)[C@H](CC(=O)O)NC(=O)[C@H](Cc1ccc(O)cc1)NC(=O)[C@H](CCC(N)=O)NC(=O)[C@@H](NC(=O)[C@H](CC(=O)O)NC(=O)[C@H](C)NC(=O)[C@@H]1CCCN1C(=O)[C@H](C)NC(=O)CNC(=O)[C@@H]1CCCN1C(=O)CN)C(C)C)C(=O)N[C@@H](Cc1ccc(O)cc1)C(=O)N[C@@H](CC(C)C)C(=O)N[C@@H](CC(N)=O)C(=O)N[C@H](C(=O)N[C@@H](C)C(=O)N[C@@H](CC(N)=O)C(=O)N[C@@H](CCCNC(=N)N)C(=O)N[C@@H](CCCNC(=N)N)C(=O)O)C(C)C` [IL3 127-146, reference compound], the IC50 in assay [1] worked out at 30.4 nM; in assay [2], 30 nM.

`CC(C)C[C@H](NC(=O)[C@H](Cc1ccc(O)cc1)NC(=O)[C@H](CC(N)=O)NC(=O)[C@H](CCC(=O)O)NC(=O)[C@H](CCC(N)=O)NC(=O)[C@@H](NC(=O)[C@H](Cc1ccccc1)NC(=O)[C@H](Cc1c[nH]cn1)NC(=O)[C@H](CCC(N)=O)NC(=O)[C@@H](NC(=O)[C@H](CC(C)C)NC(=O)[C@@H](N)CC(C)C)[C@@H](C)O)C(C)C)C(=O)N[C@@H](CCC(=O)O)C(=O)N[C@@H](Cc1ccc(O)cc1)C(=O)O` [MAG 245-258]: the IC50 in assay [1] (setting [8]) was 250 nM; in assay [2] (setting [9]) it was 400 nM.

Regarding `CC[C@H](C)[C@H](NC(=O)[C@H](Cc1ccccc1)NC(=O)[C@H](Cc1c[nH]cn1)NC(=O)[C@H](C)NC(=O)[C@H](CC(=O)O)NC(=O)[C@H](CCC(=O)O)NC(=O)[C@H](CCCNC(=N)N)NC(=O)[C@@H]1CCCN1C(=O)[C@@H](N)CCSC)C(=O)N[C@@H](Cc1ccc(O)cc1)C(=O)NCC(=O)N[C@@H](Cc1ccc(O)cc1)C(=O)N1CCC[C@H]1C(=O)N[C@@H](CCCCN)C(=O)N[C@@H](CCCCN)C(=O)NCC(=O)N[C@@H](Cc1c[nH]cn1)C(=O)NCC(=O)N[C@@H](Cc1c[nH]cn1)C(=O)N[C@@H](CO)C(=O)O` [MART1 1-20], the IC50 in assay [1] (setting [8]), in assay [1] (setting [4]), in assay [2] (setting [9]) and in assay [2] (setting [6]) was above 10000 nM each time.

Regarding `CC[C@H](C)[C@H](NC(=O)[C@H](CC(C)C)NC(=O)[C@@H](N)CC(C)C)C(=O)NCC(=O)N[C@@H](CS)C(=O)N[C@@H](Cc1c[nH]c2ccccc12)C(=O)N[C@@H](Cc1ccc(O)cc1)C(=O)N[C@@H](CS)C(=O)N[C@@H](CCCNC(=N)N)C(=O)N[C@@H](CCCNC(=N)N)C(=O)N[C@@H](CCCNC(=N)N)C(=O)N[C@@H](CC(N)=O)C(=O)NCC(=O)N[C@@H](Cc1ccc(O)cc1)C(=O)N[C@@H](CCCNC(=N)N)C(=O)N[C@@H](C)C(=O)N[C@@H](CC(C)C)C(=O)N[C@@H](CCSC)C(=O)N[C@@H](CC(=O)O)C(=O)N[C@@H](CCCCN)C(=O)O` [MART1 41-60], the half-maximal inhibitory concentration (IC50) in assay [1] (setting [8]), in assay [1] (setting [4]), in assay [2] (setting [9]) and in assay [2] (setting [6]) was above 10000 nM throughout.

In the case of `CSCC[C@H](NC(=O)[C@@H](N)CC(C)C)C(=O)N[C@@H](CC(=O)O)C(=O)N[C@@H](CCCCN)C(=O)N[C@@H](CO)C(=O)N[C@@H](CC(C)C)C(=O)N[C@@H](Cc1c[nH]cn1)C(=O)N[C@H](C(=O)NCC(=O)N[C@H](C(=O)N[C@@H](CCC(N)=O)C(=O)N[C@@H](CS)C(=O)N[C@@H](C)C(=O)N[C@@H](CC(C)C)C(=O)N[C@H](C(=O)N[C@@H](CCCNC(=N)N)C(=O)N[C@@H](CCCNC(=N)N)C(=O)N[C@@H](CS)C(=O)N1CCC[C@H]1C(=O)N[C@@H](CCC(N)=O)C(=O)O)[C@@H](C)O)[C@@H](C)O)C(C)C` [MART1 62-72], the IC50 in assay [1] (setting [8]), in assay [1] (setting [4]), in assay [2] (setting [9]) and in assay [2] (setting [6]) was above 10000 nM in each case.

For the molecule `CC(C)C[C@H](NC(=O)[C@H](CCCCN)NC(=O)[C@H](CCC(=O)O)NC(=O)[C@H](Cc1ccc(O)cc1)NC(=O)[C@H](C)N)C(=O)N[C@@H](CO)C(=O)N[C@@H](C)C(=O)N[C@@H](CCC(=O)O)C(=O)N[C@@H](CCC(N)=O)C(=O)N[C@@H](CO)C(=O)N1CCC[C@H]1C(=O)N1CCC[C@H]1C(=O)N1CCC[C@H]1C(=O)N[C@@H](Cc1ccc(O)cc1)C(=O)N[C@@H](CO)C(=O)N1CCC[C@H]1C(=O)O` [MART1 103-118], the half-inhibitory concentration (IC50) in assay [1] (setting [8]), in assay [1] (setting [4]), in assay [2] (setting [9]) and in assay [2] (setting [6]) was above 10000 nM each time.

For `CC(C)C[C@H](NC(=O)[C@H](CCCNC(=N)N)NC(=O)[C@H](C)NC(=O)[C@H](C)NC(=O)[C@H](CC(C)C)NC(=O)[C@@H]1CCCN1C(=O)[C@H](CCC(=O)O)NC(=O)[C@H](Cc1ccccc1)NC(=O)[C@H](CCC(N)=O)NC(=O)[C@@H](NC(=O)[C@H](C)NC(=O)[C@H](C)N)[C@@H](C)O)C(=O)O` [UNK6-17] (H-AATQFEPLAARL-OH), in assay [2] (IC50 (nM) 402, peptides derived from UNK1, tracer bUNK 1-17 10 nM, pH 5, 24 h), the IC50 is 6000 nM.

On to KYLAATQFEPLAA [UNK F5L], for which the “Loss of binding to DP*0401 (ratio of the IC50 values for the mutant peptide and for the UNK1 peptide)” value in assay [1] is 3.6. In assay [3], the “Loss of binding to DP*0402 (ratio of the IC50 values for the mutant peptide and for the UNK1 peptide)” value came out at 6.

Take KYNAATQFEPLAA [UNK F5N]: the “Loss of binding to DP*0401 (ratio of the IC50 values for the mutant peptide and for the UNK1 peptide)” value in assay [1] is recorded as 398. Moreover, the “Loss of binding to DP*0402 (ratio of the IC50 values for the mutant peptide and for the UNK1 peptide)” value in assay [3] turned out to be 76.

Turning to KYTAATQFEPLAA [UNK F5T], the “Loss of binding to DP*0401 (ratio of the IC50 values for the mutant peptide and for the UNK1 peptide)” value in assay [1] was found to be 234. Further, in assay [3], the “Loss of binding to DP*0402 (ratio of the IC50 values for the mutant peptide and for the UNK1 peptide)” value amounted to 126.

As to KYYAATQFEPLAA [UNK F5Y], the “Loss of binding to DP*0401 (ratio of the IC50 values for the mutant peptide and for the UNK1 peptide)” value in assay [1] was determined as 3. The “Loss of binding to DP*0402 (ratio of the IC50 values for the mutant peptide and for the UNK1 peptide)” value in assay [3] stood at 3.9.

These data come from US20100324829A1, “METHOD OF SELECTING HLA-DP4 LIGANDS AND THE APPLICATIONS THEREOF” (priority 2001, published 2010).
